Reference: BindingDB's records for doi:10.1021/jm9600813 (National Institute of Diabetes and Digestive and Kidney …, 1996)

molecular target: Sigma non-opioid intracellular receptor 1 (Cavia porcellus) (UniProt Q60492); test: Displacement of [3H](+)-pentazocine from Sigma opioid receptor type 1 in guinea pig brain membrane
Sequence (Q60492 whole entry, looked up): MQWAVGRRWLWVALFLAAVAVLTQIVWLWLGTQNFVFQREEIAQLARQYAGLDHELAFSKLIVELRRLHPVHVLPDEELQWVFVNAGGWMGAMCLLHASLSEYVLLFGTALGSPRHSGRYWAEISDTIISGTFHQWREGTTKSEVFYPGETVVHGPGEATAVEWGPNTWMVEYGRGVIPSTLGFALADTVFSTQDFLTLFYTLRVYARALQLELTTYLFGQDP

Compound | Ki [nM]
CN(CCc1ccc(N)cc1)CCN1CCCC1 [4-{2-[Methyl-(2-pyrrolidin-1-yl-ethyl)-amino]-ethyl}-phenylamine] | 276
CN(CCN1CCCC1)C(=O)Cc1cccc([N+](=O)[O-])c1 [N-Methyl-2-(3-nitro-phenyl)-N-(2-pyrrolidin-1-yl-ethyl)-acetamide] | 1850
CN(CCc1ccccc1N)CCN1CCCC1 [2-{2-[Methyl-(2-pyrrolidin-1-yl-ethyl)-amino]-ethyl}-phenylamine] | 291
CN(CCN1CCCC1)C(=O)Cc1ccccc1[N+](=O)[O-] [N-Methyl-2-(2-nitro-phenyl)-N-(2-pyrrolidin-1-yl-ethyl)-acetamide] | 736
COc1ccccc1CCN(C)CCN1CCCC1 [[2-(2-Methoxy-phenyl)-ethyl]-methyl-(2-pyrrolidin-1-yl-ethyl)-amine] | 15.7
CN(CCc1cccc([N+](=O)[O-])c1)CCN1CCCC1 [Methyl-[2-(3-nitro-phenyl)-ethyl]-(2-pyrrolidin-1-yl-ethyl)-amine] | 6.4
CN(CCc1cccc(N)c1)CCN1CCCC1 [3-{2-[Methyl-(2-pyrrolidin-1-yl-ethyl)-amino]-ethyl}-phenylamine] | 579
CN(CCc1ccccc1[N+](=O)[O-])CCN1CCCC1 [Methyl-[2-(2-nitro-phenyl)-ethyl]-(2-pyrrolidin-1-yl-ethyl)-amine] | 7.7
COc1cccc(CC(=O)N(C)CCN2CCCC2)c1 [2-(3-Methoxy-phenyl)-N-methyl-N-(2-pyrrolidin-1-yl-ethyl)-acetamide] | 3100
COc1ccc(CCN(C)CCN2CCCC2)cc1 [[2-(4-Methoxy-phenyl)-ethyl]-methyl-(2-pyrrolidin-1-yl-ethyl)-amine] | 30.3
COc1ccc(CC(=O)N(C)CCN2CCCC2)cc1 [2-(4-Methoxy-phenyl)-N-methyl-N-(2-pyrrolidin-1-yl-ethyl)-acetamide] | 2220
COc1cccc(CCN(C)CCN2CCCC2)c1 [[2-(3-Methoxy-phenyl)-ethyl]-methyl-(2-pyrrolidin-1-yl-ethyl)-amine] | 23.8
CN(CCc1ccc([N+](=O)[O-])cc1)CCN1CCCC1 [Methyl-[2-(4-nitro-phenyl)-ethyl]-(2-pyrrolidin-1-yl-ethyl)-amine] | 4.3
CN(CCN1CCCC1)C(=O)Cc1ccc([N+](=O)[O-])cc1 [N-Methyl-2-(4-nitro-phenyl)-N-(2-pyrrolidin-1-yl-ethyl)-acetamide] | 869
